{"source": "patent US20240316000A1", "about": "“METHODS OF TREATMENT” (DIFFUSION PHARMACEUTICALS LLC, priority 2021, published 2024)", "key": {"[1]": {"test_system": "permanent (24-hour) focal ischemia", "settings": "dosages tested 0.023 to 4.580 mg/kg; cited from earlier work"}, "[2]": {"experiment": "Population pharmacokinetics of TSC in plasma (LC-MS/MS, two-compartment model)", "format": "in vivo, human", "design": "V2 / V1: unit not given here", "experimental": "Prior to and following study drug administration, PK samples are obtained at the below intervals: • Pre-dose (within 10 minutes prior to injection) • 1 minute post end of injection (+1 minute) • 10 minutes post end of injection (±1 minute) • 30 minutes post end of injection (±1 minute) • 1.5 hours post end of injection (±2 minutes)\nPlasma is assayed for TSC using LC-MS/MS using prednisone as an internal standard. Sample pre-treatment involves a protein precipitation extraction procedure. Lower limit of quantitation is 10 ng/ml.\nFor 19 of the 24 subjects included in the PK analysis, TSC concentration (Cp: Concentration in Plasma.) in the 1-minute sample is smaller (often many-fold) compared to the 10-minute sample, most likely a result of sampling too soon after the dose is administered. As a result, all 1-minute samples are excluded from population PK analysis.\nBased on previous analyses and examination of drug concentration profiles, a two-compartment model with no covariates fit the data well. To determine whether the systemic parameters should be scaled for body size, three scaling approaches are evaluated: scaling all parameters by weight, allometric scaling (clearances scaled by weight raised to the 0.75 power; distribution volumes scaled by weight), and scaling all parameters by weight raised to an estimated power. The weight normalized model is preferred statistically (evaluated by the decrease in the objective function [similar to a sum of squares]) and by graphics. […] A model is evaluated in which clearance varied as a linear function of dose: […]"}, "[3]": {"experiment": "Stability of TSC versus pH", "format": "physicochemical"}, "[4]": {"test_system": "patients with peripheral artery disease", "settings": "0.25 mg/kg to 2.0 mg/kg tested, cited from earlier work"}, "healthy volunteers": {"test_system": "healthy volunteers", "experiment": "Transcutaneous oximetry (tcpO2) pharmacodynamic study, single IV bolus, subjects breathing 100% O2", "format": "in vivo, human", "settings": "for Number (%) of Subjects with a TcpO2 increase during Period 2: TSC-treated N = 24, all doses", "experimental": "This is a randomized, double-blind, placebo-controlled, pharmacokinetic, pharmacodynamics study of Trans Sodium Crocetinate (TSC) utilizing Transcutaneous Oximetry Measurement (tcpO2) in healthy volunteers breathing 100% O2. Study assessments include tcpO2 levels, SpO2, and PK.\nTcpO2 sensor electrodes are applied to the left or right lower extremity, per PI discretion. Sensor electrode temperature is preset to 45° C., to allow maximum vasodilation. Risk of sensor site superficial burn is minimal given the relatively brief testing period. Four (4) sensors are applied to the following locations: • Sensor 1: Mid-dorsum of the foot • Sensor 2: 10 cm distal to the lateral femoral epicondyle • Sensor 3: 5 cm proximal to the anterior aspect of the lateral malleolus • Sensor 4: 5 cm proximal from the center of the medial malleolus\nAfter the tcpO2 sensors have been applied and tested, subjects are placed on O2 via a simple facemask at 6 L/minute, and remain on O2 for 70 minutes prior to study drug administration. The first 10 minutes allow for equilibration of O2 levels, and the subsequent 60 minutes serve as the baseline period. TcpO2 values and SpO2 are recorded every 5 minutes during the above periods. Baseline vital signs are measured within 10 minutes prior to study drug dosing.\nAt the end of the 70-minute equilibration/baseline period, subjects continue on O2 and receive a single IV bolus injection of TSC at a dose of 0.5, 1.0, 1.5, 2.0 or 2.5 mg/kg, or placebo. After study drug administration, subjects are evaluated for 60 minutes, with tcpO2 values and SpO2 recorded every 5 minutes. In addition to assessment of tcpO2 every 5 minutes, continuous tcpO2 measurements are provided by the TCOM machine in graphical format.\nThe primary analysis is based on the change over time in the tcpO2 measurements following a single administration of TSC in subjects breathing 100% O2. The time-matched changes from Period 1 (60 minute run-in on 100% O2) to Period 2 (60 minute post-drug administration on 100% O2) serve as the dependent variable in the repeated measures analysis. The 60 minute run-in on 100% O2 is intended to account for the intra-subject variability over time and the time-match differences represent the least biased estimate of the effect of the study drug.\nThe overall pooled median values across the four TcpO2 sensors are calculated using the median value from each sensor during the same interval. To compare the time-matched changes in TcpO2, a 2-factor (treatment and time) repeated measures (time) analysis of variance (ANOVA) model is used. Contrast statements within the model facilitate comparisons between individual dose arms and placebo over time. Intra-subject changes (Period 2 minus Period 1 in 5-minute intervals) serve as the dependent variable in the model. TcpO2 baseline measures during the 60-minute Period 1 are adjusted for intra-subject variability over time. Time-matched differences between values obtained during Period 1 and Period 2 represent the least biased estimate of the effect of the study drug versus placebo.\nTherefore, a supplementary pharmacodynamic analysis on the intra-subject slopes from each period and sensor is performed. For Period 1, on an intra-subject basis, the median value from each of the 12 intervals is used to construct the slope using orthogonal spacing with respect to time. For Period 2, the slope is constructed using the median value from each of the 13 intervals—of note, Period 2 observations include 1- and 2-minute values—in addition to the 5-minute measurements for comparison to the 12 corresponding intervals of Period 1. An additional set of analyses are conducted using the Period 2 intra-subject slopes as the dependent variable. The active dose groups are pooled and the least square means are compared to placebo. This procedure is repeated iteratively, each time removing the next lowest dose group to determine the separation of each cohort's least square means relative to placebo."}, "[5]": {"settings": "population estimate, multiplied by SCALE (WT/75)"}}}
{"smiles": "CC(/C=C/C=C(\\C)C(=O)[O-])=C\\C=C\\C=C(C)\\C=C\\C=C(/C)C(=O)O.[Na+]", "note": "[TSC, trans sodium crocetinate]", "values": [{"measurement": "Dosage of maximal protective effect on cerebral infarct volume", "setting": "[1]", "result": 0.092, "unit": "mg/kg"}, {"measurement": "Clearance as a function of dose", "setting": "[2]; IV bolus 0.5-2.5 mg/kg", "result": "clearance decreases at escalating doses"}, {"measurement": "TSC plasma concentrations as a function of dose", "setting": "[2]; IV bolus 0.5-2.5 mg/kg, highest at 2.5 mg/kg", "result": "increase with escalating dose"}, {"measurement": "clearance", "setting": "[2]; human, plasma, population estimate, single IV bolus 0.5-2.5 mg/kg, multiplied by SCALE (WT/75) and FCTR 1-0.53677 · (DOSE/1.5)", "result": 137, "unit": "mL/min"}, {"measurement": "Distribution Clearance", "setting": "[2]; [5]", "result": "161.176 · SCALE L/day"}, {"measurement": "V1", "setting": "[2]; [5]", "result": "4.277 · SCALE"}, {"measurement": "V2", "setting": "[2]; [5]", "result": "46.61 · SCALE"}, {"measurement": "Stability as a function of pH", "setting": "[3]", "result": "more stable at higher pHs"}, {"measurement": "Dose with greatest increase in claudication onset time", "setting": "[4]", "result": 0.25, "unit": "mg/kg"}, {"measurement": "Dosing arm with peak increase in peak walking time", "setting": "[4]; after 5 days of treatment", "result": 1.50, "unit": "mg/kg"}, {"measurement": "Dose giving the greatest difference in TcpO2 from placebo", "setting": "healthy volunteers; 1-hour treatment period (Period 2)", "result": 2.5, "unit": "mg/kg"}, {"measurement": "Peripheral oxygenation levels over time", "setting": "healthy volunteers; Period 2, placebo shows time related decrease", "result": "stable or increasing peripheral oxygenation levels over time"}, {"measurement": "Number (%) of Subjects with a TcpO2 increase during Period 2", "setting": "healthy volunteers; Sensor 1 (mid-dorsum of the foot), placebo 1/5 (20.0%)", "result": "16/24 (66.7%)"}, {"measurement": "Intra-subject TcpO2 slopes, Least Square Mean", "setting": "healthy volunteers; Sensor 1, pooling TSC doses ≥1.0 mg/kg, placebo −0.1878, probability 0.0960", "result": 0.3537}, {"measurement": "Intra-subject TcpO2 slopes, Least Square Mean", "setting": "healthy volunteers; Sensor 1, pooling TSC doses ≥1.5 mg/kg, placebo −0.1878, probability 0.1702", "result": 0.3027}, {"measurement": "Intra-subject TcpO2 slopes, Least Square Mean", "setting": "healthy volunteers; Sensor 1, pooling TSC doses ≥2.0 mg/kg, placebo −0.1878, probability 0.1430", "result": 0.4359}, {"measurement": "Intra-subject TcpO2 slopes, Least Square Mean", "setting": "healthy volunteers; Sensor 1, pooling all TSC doses, placebo −0.1878, probability 0.0876", "result": 0.3185}, {"measurement": "Number (%) of Subjects with a TcpO2 increase during Period 2", "setting": "healthy volunteers; Sensor 2, placebo 0/5", "result": "4/24 (16.7%)"}, {"measurement": "Intra-subject TcpO2 slopes, Least Square Mean", "setting": "healthy volunteers; Sensor 2, pooling TSC doses ≥1.0 mg/kg, placebo −0.3481, probability 0.1139", "result": 0.0656}, {"measurement": "Intra-subject TcpO2 slopes, Least Square Mean", "setting": "healthy volunteers; Sensor 2, pooling TSC doses ≥1.5 mg/kg, placebo −0.3481, probability 0.1306", "result": 0.0149}, {"measurement": "Intra-subject TcpO2 slopes, Least Square Mean", "setting": "healthy volunteers; Sensor 2, pooling TSC doses ≥2.0 mg/kg, placebo −0.3481, probability 0.0959", "result": 0.0753}, {"measurement": "Intra-subject TcpO2 slopes, Least Square Mean", "setting": "healthy volunteers; Sensor 2, pooling all TSC doses, placebo −0.3481, probability 0.0796", "result": 0.0849}, {"measurement": "Number (%) of Subjects with a TcpO2 increase during Period 2", "setting": "healthy volunteers; Sensor 3, placebo 0/5", "result": "3/24 (12.5%)"}, {"measurement": "Intra-subject TcpO2 slopes, Least Square Mean", "setting": "healthy volunteers; Sensor 3, pooling TSC doses ≥1.0 mg/kg, placebo −0.6320, probability 0.0301", "result": 0.0132}, {"measurement": "Intra-subject TcpO2 slopes, Least Square Mean", "setting": "healthy volunteers; Sensor 3, pooling TSC doses ≥1.5 mg/kg, placebo −0.6320, probability 0.0572", "result": 0.0249}, {"measurement": "Intra-subject TcpO2 slopes, Least Square Mean", "setting": "healthy volunteers; Sensor 3, pooling TSC doses ≥2.0 mg/kg, placebo −0.6320, probability 0.0421", "result": 0.0846}, {"measurement": "Intra-subject TcpO2 slopes, Least Square Mean", "setting": "healthy volunteers; Sensor 3, pooling all TSC doses, placebo −0.6320, probability 0.0186", "result": 0.0151}, {"measurement": "Number (%) of Subjects with a TcpO2 increase during Period 2", "setting": "healthy volunteers; Sensor 4, placebo 0/5", "result": "6/24 (25.0%)"}, {"measurement": "Intra-subject TcpO2 slopes, Least Square Mean", "setting": "healthy volunteers; Sensor 4, pooling TSC doses ≥1.0 mg/kg, placebo −0.6389, probability 0.0213", "result": 0.0260}, {"measurement": "Intra-subject TcpO2 slopes, Least Square Mean", "setting": "healthy volunteers; Sensor 4, pooling TSC doses ≥1.5 mg/kg, placebo −0.6389, probability 0.0436", "result": "−0.0909"}, {"measurement": "Intra-subject TcpO2 slopes, Least Square Mean", "setting": "healthy volunteers; Sensor 4, pooling TSC doses ≥2.0 mg/kg, placebo −0.6389, probability 0.0187", "result": 0.0297}, {"measurement": "Intra-subject TcpO2 slopes, Least Square Mean", "setting": "healthy volunteers; Sensor 4, pooling all TSC doses, placebo −0.6389, probability 0.0230", "result": "−0.0198"}, {"measurement": "Increase in TcpO2 levels relative to placebo", "setting": "healthy volunteers; all TSC dose groups, supplemental analysis, Period 2", "result": "greater increase in TcpO2 levels than the placebo group"}, {"measurement": "TCOM readings after TSC administration compared to placebo", "setting": "healthy volunteers; persists up to 60 minutes, most pronounced at 2.0 and 2.5 mg/kg iv", "result": "positive trend"}]}
